Among the data in patent publication US9133181B2, “Substituted 6-(4-hydroxy-phenyl)-1H-pyrazolo[3,4-b]pyridine derivatives as kinase inhibitors” (SANOFI, priority 2012, dated 2015) are inhibition values, retold here.

The target in the experiment is T1, human full-length recombinant PKC βII (Homo sapiens, UniProt P05771).
T1 construct: Active human full-length recombinant PKC βII; purchased Invitrogen GmbH, Darmstadt, Germany
T1 sequence (P05771 1-673 isoform P05771-2): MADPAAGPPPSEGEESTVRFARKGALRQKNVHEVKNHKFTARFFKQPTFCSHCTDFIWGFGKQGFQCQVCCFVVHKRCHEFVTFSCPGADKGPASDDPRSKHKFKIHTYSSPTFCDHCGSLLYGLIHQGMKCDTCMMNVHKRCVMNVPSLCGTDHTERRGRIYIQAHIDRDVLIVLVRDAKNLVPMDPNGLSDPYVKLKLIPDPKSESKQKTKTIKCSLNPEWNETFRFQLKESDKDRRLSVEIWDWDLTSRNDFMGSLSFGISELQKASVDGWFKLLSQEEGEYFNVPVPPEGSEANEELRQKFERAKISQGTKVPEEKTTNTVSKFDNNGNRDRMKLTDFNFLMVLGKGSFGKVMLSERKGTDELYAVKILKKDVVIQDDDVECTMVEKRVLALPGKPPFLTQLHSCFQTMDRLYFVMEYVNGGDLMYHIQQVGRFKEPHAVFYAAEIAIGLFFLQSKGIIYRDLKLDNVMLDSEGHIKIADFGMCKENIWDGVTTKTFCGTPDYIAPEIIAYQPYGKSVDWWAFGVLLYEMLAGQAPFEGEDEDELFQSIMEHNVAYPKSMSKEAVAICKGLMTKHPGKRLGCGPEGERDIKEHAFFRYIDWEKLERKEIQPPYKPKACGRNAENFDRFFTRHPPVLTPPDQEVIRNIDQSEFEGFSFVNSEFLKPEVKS
The experiment can be described thus: Determination of PKC βII inhibition (Caliper mobility shift kinase assay). The format is biochemical. The note with it: final compound concentration 1.14 μM (±0.15 μM); 60 min incubation at 32° C. In outline: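 Compound was tested at a final 1.14 µM (±0.15 µM), with % inhibition derived from the product/(substrate+product) peak ratio on a Caliper mobility-shift read-out. Full-length PKC βII was activated by CaCl2, PS and DAG in pH 7.4 Hepes/MgCl2. Peptide and ATP were at 3 µM and 120 µM in the added mix. Incubation was 60 min at 32 °C.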
With `COCCN1CC(C)(C)N(Cc2cc(-c3ccc(O)cc3)nc3[nH]nc(C)c23)CC1C` (stereo not shown) [Example 63, 4-{4-[4-(2-Methoxy-ethyl)-2,2,5-trimethyl-piperazin-1-ylmethyl]-3-methyl-1H-pyrazolo[3,4-b]pyridin-6-yl}-phenol], the inhibition at 1.14 µM came to 97%.

For `COCCCN1CC(C)(C)N(Cc2cc(-c3ccc(O)cc3)nc3[nH]nc(C)c23)CC1C` (stereo not shown) [Example 64, 4-{4-[4-(3-Methoxy-propyl)-2,2,5-trimethyl-piperazin-1-ylmethyl]-3-methyl-1H-pyrazolo[3,4-b]pyridin-6-yl}-phenol], the inhibition at 1.14 µM was 94%. The result for `Cc1n[nH]c2nc(-c3ccc(O)cc3F)cc(CN3CC(C)(C)N(CCC(F)(F)F)CC3(C)C)c12` [Example 65, 3-Fluoro-4-{3-methyl-4-[2,2,5,5-tetramethyl-4-(3,3,3-trifluoro-propyl)-piperazin-1-ylmethyl]-1H-pyrazolo[3,4-b]pyridin-6-yl}-phenol] reads 88%; that for `Cc1n[nH]c2nc(-c3ccc(O)cc3F)cc(CN3CC(C)(C)N(C)CC3(C)C)c12` [Example 66, 3-Fluoro-4-[3-methyl-4-(2,2,4,5,5-penta-methyl-piperazin-1-ylmethyl)-1H-pyrazolo[3,4-b]-pyridin-6-yl]-phenol], 100%; that for `COCCCN1CC(C)(C)N(Cc2cc(-c3ccc(O)cc3F)nc3[nH]nc(C)c23)CC1(C)C` [Example 67, 3-Fluoro-4-{4-[4-(3-methoxy-propyl)-2,2,5,5-tetramethyl-piperazin-1-ylmethyl]-3-methyl-1H-pyrazolo[3,4-b]pyridin-6-yl}-phenol], 103%.

With `Cc1n[nH]c2nc(-c3ccc(O)cc3F)cc(CN3CC(C)(C)N(CCC4CCOCC4)CC3(C)C)c12` [Example 68, 3-Fluoro-4-(3-methyl-4-{2,2,5,5-tetramethyl-4-[2-(tetrahydro-pyran-4-yl)-ethyl]-piperazin-1-ylmethyl}-1H-pyrazolo[3,4-b]pyridin-6-yl)-phenol], the inhibition at 1.14 µM amounted to 101%. With `Cc1n[nH]c2nc(-c3ccc(O)cc3F)cc(CN3CC(C)(C)N(C[C@H]4COC(C)(C)O4)CC3(C)C)c12` [Example 69, 4-{4-[4-((S)-2,2-Dimethyl-[1,3]dioxolan-4-ylmethyl)-2,2,5,5-tetramethyl-piperazin-1-ylmethyl]-3-methyl-1H-pyrazolo[3,4-b]pyridin-6-yl}-3-fluoro-phenol], the inhibition at 1.14 µM was determined as 92%. The result for `Cc1n[nH]c2nc(-c3ccc(O)cc3F)cc(CN3CC(C)(C)N(CC4CCOCC4)CC3(C)C)c12` [Example 70, 3-Fluoro-4-{3-methyl-4-[2,2,5,5-tetramethyl-4-(tetrahydro-pyran-4-ylmethyl)-piperazin-1-ylmethyl]-1H-pyrazolo[3,4-b]pyridin-6-yl}-phenol] reads 96%; that for `Cc1n[nH]c2nc(-c3ccc(O)cc3F)cc(CN3CC4(CCCC4)N(C)CC3(C)C)c12` [Example 71, 3-Fluoro-4-[3-methyl-4-(6,8,8-trimethyl-6,9-diaza-spiro[4.5]dec-9-ylmethyl)-1H-pyrazolo[3,4-b]pyridin-6-yl]-phenol], 98%; that for `Cc1n[nH]c2nc(-c3ccc(O)cc3F)cc(CN3CC(C)(C)N(CCO)CC3(C)C)c12` [Example 72, 3-Fluoro-4-{4-[4-(2-hydroxy-ethyl)-2,2,5,5-tetramethyl-piperazin-1-ylmethyl]-3-methyl-1H-pyrazolo[3,4-b]pyridin-6-yl}-phenol], 100%. Under `Cc1n[nH]c2nc(-c3ccc(O)cc3F)cc(CN3CC(C)(C)N(C[C@H](O)CO)CC3(C)C)c12` [Example 73, (S)-3-{4-[6-(2-Fluoro-4-hydroxy-phenyl)-3-methyl-1H-pyrazolo[3,4-b]pyridin-4-ylmethyl]-2,2,5,5-tetramethyl-piperazin-1-yl}-propane-1,2-diol] stands 97%; under `COC(=O)CN1CC(C)(C)N(Cc2cc(-c3ccc(O)cc3F)nc3[nH]nc(C)c23)CC1(C)C` [Example 74, {4-[6-(2-Fluoro-4-hydroxy-phenyl)-3-methyl-1H-pyrazolo[3,4-b]pyridin-4-ylmethyl]-2,2,5,5-tetramethyl-piperazin-1-yl}-acetic acid methyl ester], 95%. Under `COCC(=O)N1CC(C)(C)N(Cc2cc(-c3ccc(O)cc3F)nc3[nH]nc(C)c23)CC1(C)C` [Example 75, 1-{4-[6-(2-Fluoro-4-hydroxy-phenyl)-3-methyl-1H-pyrazolo[3,4-b]pyridin-4-ylmethyl]-2,2,5,5-tetramethyl-piperazin-1-yl}-2-methoxy-ethanone] stands 96%; under `COCCC(=O)N1CC(C)(C)N(Cc2cc(-c3ccc(O)cc3F)nc3[nH]nc(C)c23)CC1(C)C` [Example 76, 1-{4-[6-(2-Fluoro-4-hydroxy-phenyl)-3-methyl-1H-pyrazolo[3,4-b]pyridin-4-ylmethyl]-2,2,5,5-tetramethyl-piperazin-1-yl}-3-methoxy-propan-1-one], 95%. Consider `Cc1n[nH]c2nc(-c3ccc(O)cc3F)cc(CN3CC(C)(C)N(C(=O)C4CCOC4)CC3(C)C)c12` (stereo not shown) [Example 77, {4-[6-(2-Fluoro-4-hydroxy-phenyl)-3-methyl-1H-pyrazolo[3,4-b]pyridin-4-ylmethyl]-2,2,5,5-tetramethyl-piperazin-1-yl}-(tetrahydro-furan-3-yl)-methanone], for which the inhibition at 1.14 µM was 98%. Under `CC(=O)N1CC(C)(C)N(Cc2cc(-c3ccc(O)cc3F)nc3[nH]nc(C)c23)CC1(C)C` [Example 78, 1-{4-[6-(2-Fluoro-4-hydroxy-phenyl)-3-methyl-1H-pyrazolo[3,4-b]pyridin-4-ylmethyl]-2,2,5,5-tetramethyl-piperazin-1-yl}-ethanone] stands 97%; under `COCC(=O)N1CCCN(Cc2cc(-c3ccc(O)cc3F)nc3[nH]nc(C)c23)CC1C` (stereo not shown) [Example 79, 1-{4-[6-(2-Fluoro-4-hydroxy-phenyl)-3-methyl-1H-pyrazolo[3,4-b]pyridin-4-ylmethyl]-2-methyl-[1,4]diazepan-1-yl}-2-methoxy-ethanone], 65%. In the case of `Cc1n[nH]c2nc(-c3ccc(O)cc3F)cc(CN3CC(C)(C)N(C(=O)CO)CC3(C)C)c12` [Example 80, 1-{4-[6-(2-Fluoro-4-hydroxy-phenyl)-3-methyl-1H-pyrazolo[3,4-b]pyridin-4-ylmethyl]-2,2,5,5-tetramethyl-piperazin-1-yl}-2-hydroxy-ethanone], the inhibition at 1.14 µM turned out to be 93%.

Take `COCC(=O)NC1(C)CCCN(Cc2cc(-c3ccc(O)cc3F)nc3[nH]nc(C)c23)C1` (stereo not shown) [Example 81, N-{1-[6-(2-Fluoro-4-hydroxy-phenyl)-3-methyl-1H-pyrazolo[3,4-b]pyridin-4-ylmethyl]-3-methyl-piperidin-3-yl}-2-methoxy-acetamide]: the inhibition at 1.14 µM worked out at 97%. Under `COCC(=O)N1CC(C)N(Cc2cc(-c3ccc(O)cc3)nc3[nH]nc(C)c23)CC12CCCC2` (stereo not shown) [Example 82, 1-{9-[6-(4-Hydroxy-phenyl)-3-methyl-1H-pyrazolo[3,4-b]pyridin-4-ylmethyl]-8-methyl-6,9-diaza-spiro[4.5]dec-6-yl}-2-methoxy-ethanone] stands 85%. Consider `Cc1n[nH]c2nc(-c3ccc(O)cc3)cc(CN3CC(C)(C)N(CCC(F)(F)F)CC3(C)C)c12` [Example 83, 4-{3-Methyl-4-[2,2,5,5-tetramethyl-4-(3,3,3-trifluoro-propyl)-piperazin-1-ylmethyl]-1H-pyrazolo[3,4-b]pyridin-6-yl}-phenol], for which the inhibition at 1.14 µM came to 69%. Under `Cc1n[nH]c2nc(-c3ccc(O)cc3)cc(CN3CC(C)(C)N(C)CC3(C)C)c12` [Example 84, 4-[3-Methyl-4-(2,2,4,5,5-pentamethyl-piperazin-1-ylmethyl)-1H-pyrazolo[3,4-b]pyridin-6-yl]-phenol] stands 98%.

In the case of `CNCCN1CC(C)(C)N(Cc2cc(-c3ccc(O)cc3)nc3[nH]nc(C)c23)CC1(C)C` [Example 85, 4-{3-Methyl-4-[2,2,5,5-tetramethyl-4-(2-methylamino-ethyl)-piperazin-1-ylmethyl]-1H-pyrazolo[3,4-b]pyridin-6-yl}-phenol], the inhibition at 1.14 µM is 101%. Consider `COC(=O)CN1CC(C)(C)N(Cc2cc(-c3ccc(O)cc3)nc3[nH]nc(C)c23)CC1(C)C` [Example 86, {4-[6-(4-Hydroxy-phenyl)-3-methyl-1H-pyrazolo[3,4-b]pyridin-4-ylmethyl]-2,2,5,5-tetramethyl-piperazin-1-yl}-acetic acid methyl ester], for which the inhibition at 1.14 µM stood at 86%. The result for `COC(=O)CNC(=O)N1CC(C)(C)N(Cc2cc(-c3ccc(O)cc3)nc3[nH]nc(C)c23)CC1(C)C` [Example 87, ({4-[6-(4-Hyd roxy-phenyl)-3-methyl-1H-pyrazolo[3,4-b]pyridin-4-ylmethyl]-2,2,5,5-tetramethyl-piperazine-1-carbonyl}-amino)-acetic acid methyl ester] reads 92%; that for `CCNC(=O)N1CC(C)(C)N(Cc2cc(-c3ccc(O)cc3)nc3[nH]nc(C)c23)CC1(C)C` [Example 88, 4-[6-(4-Hydroxy-phenyl)-3-methyl-1H-pyrazolo[3,4-b]pyridin-4-ylmethyl]-2,2,5,5-tetramethyl-piperazine-1-carboxylic acid ethylamide], 89%; that for `CCNC(=O)N1CCCN(Cc2cc(-c3ccc(O)cc3F)nc3[nH]nc(C)c23)CC1C` (stereo not shown) [Example 89, 4-[6-(2-Fluoro-4-hydroxy-phenyl)-3-methyl-1H-pyrazolo[3,4-b]pyridin-4-ylmethyl]-2-methyl-[1,4]diazepane-1-carboxylic acid ethylamide], 76%. The result for `COCC(=O)N1CC(C)(C)N(Cc2cc(-c3ccc(O)cc3)nc3[nH]nc(C)c23)CC1(C)C` [Example 90, 1-{4-[6-(4-Hydroxy-phenyl)-3-methyl-1H-pyrazolo[3,4-b]pyridin-4-ylmethyl]-2,2,5,5-tetramethyl-piperazin-1-yl}-2-methoxy-ethanone] reads 99%.
